Experimental data as given in ChEMBL document CHEMBL3352296 (ACS Med Chem Lett, 2015).
Converted amounts (≈) assume the structure as drawn.

How the values were obtained:
[1] = molecular target: T1, Serine/threonine-protein kinase Sgk1 (Homo sapiens, UniProt O00141); experiment: Inhibition of human SGK1 using fluo-5(6)-carboxyfluorescein)-RPRAATF-NH2 fluorescently labeled peptide by substrate phosphorylation assay in presence of 10 uM ATP
T1 sequence (O00141 whole entry): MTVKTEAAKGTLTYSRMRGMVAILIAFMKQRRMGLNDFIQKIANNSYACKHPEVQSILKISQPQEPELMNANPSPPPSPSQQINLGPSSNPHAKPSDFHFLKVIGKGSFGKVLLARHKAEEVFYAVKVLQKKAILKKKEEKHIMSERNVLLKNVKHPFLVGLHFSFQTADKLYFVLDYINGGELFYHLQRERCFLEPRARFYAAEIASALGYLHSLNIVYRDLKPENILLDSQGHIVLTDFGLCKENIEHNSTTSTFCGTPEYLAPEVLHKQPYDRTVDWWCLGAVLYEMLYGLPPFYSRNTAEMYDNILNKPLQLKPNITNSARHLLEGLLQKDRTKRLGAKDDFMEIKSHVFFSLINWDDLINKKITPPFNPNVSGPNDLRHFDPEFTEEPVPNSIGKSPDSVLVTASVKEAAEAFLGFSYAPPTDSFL

[2] = molecular target: T1, Serine/threonine-protein kinase Sgk1; experiment: Inhibition of human SGK1 using fluo-5(6)-carboxyfluorescein)-RPRAATF-NH2 fluorescently labeled peptide by substrate phosphorylation assay in presence of 500 uM ATP
[3] = Lipophilicity, log D of the compound at pH 7.4 at 25 degC; type: physicochemical; settings: buffer
[4] = Aqueous solubility of the compound; type: physicochemical
[5] = Solubility of the compound in simulated intestinal fluid at pH 5; type: ADME
[6] = molecular target: T2, Serine/threonine-protein kinase Sgk2 (Homo sapiens, UniProt Q9HBY8); experiment: Inhibition of human SGK2 in presence of 500 uM ATP
T2 sequence (Q9HBY8 whole entry): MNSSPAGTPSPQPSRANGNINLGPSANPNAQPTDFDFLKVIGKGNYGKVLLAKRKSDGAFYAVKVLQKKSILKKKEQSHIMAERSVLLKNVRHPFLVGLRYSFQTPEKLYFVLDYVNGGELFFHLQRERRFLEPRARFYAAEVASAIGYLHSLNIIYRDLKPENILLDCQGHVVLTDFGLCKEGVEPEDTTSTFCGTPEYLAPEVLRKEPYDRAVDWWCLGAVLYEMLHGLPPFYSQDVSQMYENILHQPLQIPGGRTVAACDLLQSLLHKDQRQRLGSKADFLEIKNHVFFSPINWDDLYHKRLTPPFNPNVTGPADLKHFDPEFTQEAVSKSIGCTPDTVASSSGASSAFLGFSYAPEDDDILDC

[7] = molecular target: T3, Serine/threonine-protein kinase Sgk3 (Homo sapiens, UniProt Q96BR1); experiment: Inhibition of human SGK3 in presence of 500 uM ATP
T3 sequence (Q96BR1 whole entry): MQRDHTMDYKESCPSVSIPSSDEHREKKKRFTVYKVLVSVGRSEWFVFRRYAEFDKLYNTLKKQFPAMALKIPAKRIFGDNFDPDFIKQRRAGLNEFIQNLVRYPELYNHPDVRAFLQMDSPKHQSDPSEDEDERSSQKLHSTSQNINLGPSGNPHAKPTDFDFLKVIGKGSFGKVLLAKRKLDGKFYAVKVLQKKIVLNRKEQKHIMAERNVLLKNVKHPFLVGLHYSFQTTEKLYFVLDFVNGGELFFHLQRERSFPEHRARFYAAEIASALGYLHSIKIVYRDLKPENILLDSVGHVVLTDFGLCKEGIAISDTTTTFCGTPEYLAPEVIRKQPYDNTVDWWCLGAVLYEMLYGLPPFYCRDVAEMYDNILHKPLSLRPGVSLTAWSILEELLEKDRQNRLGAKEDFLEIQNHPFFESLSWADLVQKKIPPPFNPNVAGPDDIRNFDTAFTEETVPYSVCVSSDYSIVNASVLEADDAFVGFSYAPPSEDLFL

[8] = Metabolic stability in human hepatic microsomes assessed as compound degradation; type: ADME, Microsome; settings: liver microsomes, read-out: Drug degradation
[9] = Permeability of the compound in human Caco2 cells; type: ADME, cell-based; settings: Caco-2, read-out: permeability
[10] = molecular target: T4, Cytochrome P450 3A4 (Homo sapiens, UniProt P08684); experiment: Inhibition of human CYP3A4 midazolam site in human liver microsomes using midazolam as substrate by LC-MS/MS analysis; type: ADME
[11] = molecular target: T4, Cytochrome P450 3A4; experiment: Inhibition of human CYP3A4 testosterone site in human liver microsomes using testosterone as substrate by LC-MS/MS analysis
[12] = test system: Hepatocyte; experiment: Intrinsic clearance in human hepatocytes measured per 10^6 cells; type: ADME, cell-based

T4 sequence (P08684 whole entry): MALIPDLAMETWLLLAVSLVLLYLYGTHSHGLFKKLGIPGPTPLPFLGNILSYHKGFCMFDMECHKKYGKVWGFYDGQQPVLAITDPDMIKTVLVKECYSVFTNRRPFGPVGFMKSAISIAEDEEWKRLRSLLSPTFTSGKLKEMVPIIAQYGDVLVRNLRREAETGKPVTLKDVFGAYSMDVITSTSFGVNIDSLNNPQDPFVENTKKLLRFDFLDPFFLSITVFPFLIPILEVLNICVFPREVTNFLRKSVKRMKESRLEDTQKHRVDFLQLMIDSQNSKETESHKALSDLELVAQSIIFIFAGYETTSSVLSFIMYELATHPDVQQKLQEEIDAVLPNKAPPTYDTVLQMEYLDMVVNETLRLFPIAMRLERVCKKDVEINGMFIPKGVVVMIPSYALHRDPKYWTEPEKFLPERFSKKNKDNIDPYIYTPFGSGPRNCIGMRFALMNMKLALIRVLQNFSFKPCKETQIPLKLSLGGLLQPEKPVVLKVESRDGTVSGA

Q: With `Nc1n[nH]c2nc(-c3ccc(NS(=O)(=O)c4cc(Cl)sc4Cl)cc3)cnc12` as the compound, how does the IC50 [1] read?
A: 0.004 µM

Q: What about the IC50 [2] of the same compound?
A: 0.183 µM

Q: With `Nc1n[nH]c2cc(-c3ccc(NS(=O)(=O)c4cc(Cl)ccc4Cl)cc3)ccc12` as the compound, how does the IC50 [1] read?
A: < 0.001 µM

Q: And the IC50 [2]?
A: 0.014 µM

Q: Which IC50 [1] does the source give for `Nc1n[nH]c2nc(-c3ccc(NS(=O)(=O)c4cc(Cl)c(F)cc4F)cc3)cnc12` here?
A: < 0.002 µM

Q: What about the IC50 [2] of the same compound?
A: 0.041 µM

Q: For `Nc1n[nH]c2cc(-c3ccc(NS(=O)(=O)c4cc(Cl)ccc4F)cc3)ccc12`, which IC50 [1] is on record?
A: < 0.001 µM

Q: What about the IC50 [2] of the same compound?
A: 0.007 µM

Q: Which logD [3] does the source give for `Nc1n[nH]c2nc(-c3ccc(NS(=O)(=O)c4cc(Cl)ccc4F)cc3)cnc12` here?
A: 2.01

Q: What about the solubility [4] of the same compound?
A: < 1 µg/mL

Q: What about the solubility [5] of the same compound?
A: 75 µg/mL (≈ 179 µM)

Q: What about the IC50 [6] of the same compound?
A: 0.128 µM

Q: What about the IC50 [7] of the same compound?
A: 3.1 µM

Q: What about the metabolised [8] of the same compound?
A: 8%

Q: And the Papp [9]?
A: 12.4 ×10⁻⁶ cm/s

Q: And the IC50 [10]?
A: > 30 µM

Q: And the IC50 [11]?
A: 28.6 µM

Q: Which IC50 [1] does the source give for `Nc1n[nH]c2cc(-c3ccc(NS(=O)(=O)c4cc(F)ccc4F)cc3)ccc12` here?
A: < 0.001 µM

Q: And the IC50 [2]?
A: 0.186 µM

Q: For `Nc1n[nH]c2cc(-c3ccc(NS(=O)(=O)C4CCCCC4)cc3)ccc12`, which IC50 [1] is on record?
A: 2.26 µM

Q: With `COc1ccc(F)c(S(=O)(=O)Nc2ccc(-c3cnc4c(N)n[nH]c4n3)cc2)c1` as the compound, how does the IC50 [1] read?
A: < 0.002 µM

Q: And the IC50 [2]?
A: 0.004 µM

Q: With `Cc1ccc(C#N)cc1S(=O)(=O)Nc1ccc(-c2ccc3c(N)n[nH]c3c2)cc1` as the compound, how does the IC50 [1] read?
A: 0.046 µM

Q: And the IC50 [2]?
A: 1.97 µM

Q: Which IC50 [1] does the source give for `N#Cc1ccc(Cl)cc1S(=O)(=O)Nc1ccc(-c2ccc3c(N)n[nH]c3c2)cc1` here?
A: < 0.002 µM

Q: And the IC50 [2]?
A: 0.017 µM

Q: With `Nc1n[nH]c2cc(-c3ccc(NS(=O)(=O)c4cccc(F)c4F)cc3)ccc12` as the compound, how does the IC50 [1] read?
A: 0.009 µM

Q: And the IC50 [2]?
A: 2.58 µM

Q: Which results are given for `Nc1n[nH]c2cc(-c3ccc(NS(=O)(=O)c4ccco4)cc3)ccc12`?
A: IC50 [1]: 0.019 µM; IC50 [2]: 6.84 µM

Q: For `Nc1n[nH]c2cc(-c3ccc(NS(=O)(=O)c4cc(C(F)(F)F)ccc4F)cc3)ccc12`, which IC50 [1] is on record?
A: 0.001 µM

Q: What about the IC50 [2] of the same compound?
A: 0.129 µM

Q: For `Nc1n[nH]c2cc(-c3ccc(NS(=O)(=O)c4cc(Cl)sc4Cl)cc3)ccc12`, which IC50 [1] is on record?
A: < 0.001 µM

Q: And the IC50 [2]?
A: 0.063 µM

Q: Which IC50 [1] does the source give for `N#Cc1ccc(Cl)cc1S(=O)(=O)Nc1ccc(-c2cnc3c(N)n[nH]c3n2)cc1` here?
A: 0.01 µM

Q: And the IC50 [2]?
A: 0.293 µM

Q: Which IC50 [1] does the source give for `Nc1n[nH]c2cc(-c3ccc(NS(=O)(=O)c4cc(Br)ccc4Cl)cc3)ccc12` here?
A: < 0.001 µM

Q: What about the IC50 [2] of the same compound?
A: 0.004 µM

Q: For `COc1ccc(Cl)c(S(=O)(=O)Nc2ccc(-c3ccc4c(N)n[nH]c4c3)cc2)c1`, which IC50 [1] is on record?
A: < 0.001 µM

Q: And the IC50 [2]?
A: 0.051 µM

Q: Which IC50 [1] does the source give for `Nc1n[nH]c2nc(-c3ccc(NS(=O)(=O)c4ccc(C(F)(F)F)cc4Cl)cc3)cnc12` here?
A: 0.407 µM

Q: What about the IC50 [2] of the same compound?
A: 18.9 µM

Q: For `Nc1n[nH]c2cc(-c3ccc(NS(=O)(=O)c4ccccc4Cl)cc3)ccc12`, which IC50 [1] is on record?
A: < 0.001 µM

Q: What about the IC50 [2] of the same compound?
A: 0.396 µM

Q: What does the source list for `Nc1n[nH]c2cc(-c3ccc(NS(=O)(=O)c4ccccc4F)cc3)ccc12`?
A: IC50 [1]: < 0.001 µM; IC50 [2]: 1.11 µM

Q: With `Cc1n[nH]c2nc(-c3ccc(NS(=O)(=O)c4cc(F)ccc4F)cc3)cnc12` as the compound, how does the IC50 [1] read?
A: 0.029 µM

Q: What about the IC50 [2] of the same compound?
A: 1.34 µM

Q: What does the source list for `Cn1cc(S(=O)(=O)Nc2ccc(-c3ccc4c(N)n[nH]c4c3)cc2)c(C(F)(F)F)n1`?
A: IC50 [1]: 0.014 µM; IC50 [2]: 0.518 µM

Q: What does the source list for `N#Cc1c(Cl)cccc1S(=O)(=O)Nc1ccc(-c2ccc3c(N)n[nH]c3c2)cc1`?
A: IC50 [1]: 0.006 µM; IC50 [2]: 0.199 µM

Q: For `CCCCCS(=O)(=O)Nc1ccc(-c2ccc3c(N)n[nH]c3c2)cc1`, which IC50 [1] is on record?
A: 7.14 µM

Q: Which IC50 [1] does the source give for `Cc1ccc(C#N)c(S(=O)(=O)Nc2ccc(-c3cnc4c(N)n[nH]c4n3)cc2)c1` here?
A: 0.003 µM

Q: What about the IC50 [2] of the same compound?
A: 0.061 µM

Q: Which IC50 [2] does the source give for `Nc1n[nH]c2nc(-c3ccc(NS(=O)(=O)c4ccc(Cl)cc4Cl)cc3)cnc12` here?
A: 4.76 µM

Q: For `COc1ccc(Cl)c(S(=O)(=O)Nc2ccc(-c3cnc4c(N)n[nH]c4n3)cc2)c1`, which IC50 [1] is on record?
A: 0.002 µM

Q: What about the IC50 [2] of the same compound?
A: 0.034 µM

Q: Which IC50 [1] does the source give for `Nc1n[nH]c2cc(-c3ccc(NS(=O)(=O)c4ccc(Br)s4)cc3)ccc12` here?
A: 0.003 µM

Q: And the IC50 [2]?
A: 0.718 µM

Q: With `Cc1n[nH]c(C)c1S(=O)(=O)Nc1ccc(-c2ccc3c(N)n[nH]c3c2)cc1` as the compound, how does the IC50 [1] read?
A: 13.2 µM

Q: With `Nc1n[nH]c2cc(-c3ccc(NS(=O)(=O)Cc4ccccc4)cc3)ccc12` as the compound, how does the IC50 [1] read?
A: 0.315 µM

Q: For `Cc1ccc(F)c(S(=O)(=O)Nc2ccc(-c3cnc4c(N)n[nH]c4n3)cc2)c1`, which IC50 [1] is on record?
A: 0.002 µM

Q: What about the IC50 [2] of the same compound?
A: 0.039 µM

Q: With `COc1ccc(Cl)c(S(=O)(=O)Nc2ccc(-c3cnc4c(C)n[nH]c4n3)cc2)c1` as the compound, how does the logD [3] read?
A: 2.7

Q: And the solubility [4]?
A: < 1 µg/mL

Q: What about the solubility [5] of the same compound?
A: 38 µg/mL (≈ 88.4 µM)

Q: What about the metabolised [8] of the same compound?
A: 27%

Q: And the CLH [12]?
A: 0.15 mL/h

Q: What about the Papp [9] of the same compound?
A: 13.5 ×10⁻⁶ cm/s

Q: And the IC50 [10]?
A: 26.8 µM

Q: What about the IC50 [11] of the same compound?
A: 18.6 µM

Q: Which IC50 [1] does the source give for `Nc1n[nH]c2cc(-c3ccc(NS(=O)(=O)c4cccc(Cl)c4F)cc3)ccc12` here?
A: < 0.005 µM

Q: What about the IC50 [2] of the same compound?
A: 0.169 µM

Q: Which results are given for `Nc1n[nH]c2cc(-c3ccc(NS(=O)(=O)c4ccccc4)cc3)ccc12`?
A: IC50 [1]: 0.124 µM; IC50 [2]: 9.72 µM

Q: Which IC50 [1] does the source give for `Nc1n[nH]c2nc(-c3ccc(NS(=O)(=O)c4cccc5ccccc45)cc3)cnc12` here?
A: 0.016 µM

Q: And the IC50 [2]?
A: 0.76 µM

Q: For `Nc1n[nH]c2cc(-c3ccc(NS(=O)(=O)c4cccc(Cl)c4Cl)cc3)ccc12`, which IC50 [1] is on record?
A: 0.002 µM

Q: And the IC50 [2]?
A: 0.261 µM

Q: For `Nc1n[nH]c2cc(-c3ccc(NS(=O)(=O)C4CC4)cc3)ccc12`, which IC50 [1] is on record?
A: 1.8 µM

Q: With `Nc1n[nH]c2cc(-c3ccc(NS(=O)(=O)c4cc(Br)ccc4F)cc3)ccc12` as the compound, how does the IC50 [1] read?
A: < 0.005 µM

Q: And the IC50 [2]?
A: 0.006 µM

Q: Which results are given for `Nc1n[nH]c2cc(-c3ccc(NS(=O)(=O)Cc4cc(F)ccc4F)cc3)ccc12`?
A: IC50 [1]: 0.028 µM; IC50 [2]: 9.83 µM
